# According to ChEMBL document CHEMBL1136782, “Further studies on 2,4-diamino-5-(2',5'-disubstituted benzyl)pyrimidines as potent and selective inhibitors of dihydrofolate reductases from three major opportunistic pathogens of AIDS” (J Med Chem, 2003):
# What was measured:
# [1] = Relative affinity for Dihydrofolate reductase of rat liver and Mycobacterium avium
# [2] = target: T1, Bifunctional dihydrofolate reductase-thymidylate synthase (Toxoplasma gondii, UniProt Q07422)
# T1 sequence (Q07422 whole entry): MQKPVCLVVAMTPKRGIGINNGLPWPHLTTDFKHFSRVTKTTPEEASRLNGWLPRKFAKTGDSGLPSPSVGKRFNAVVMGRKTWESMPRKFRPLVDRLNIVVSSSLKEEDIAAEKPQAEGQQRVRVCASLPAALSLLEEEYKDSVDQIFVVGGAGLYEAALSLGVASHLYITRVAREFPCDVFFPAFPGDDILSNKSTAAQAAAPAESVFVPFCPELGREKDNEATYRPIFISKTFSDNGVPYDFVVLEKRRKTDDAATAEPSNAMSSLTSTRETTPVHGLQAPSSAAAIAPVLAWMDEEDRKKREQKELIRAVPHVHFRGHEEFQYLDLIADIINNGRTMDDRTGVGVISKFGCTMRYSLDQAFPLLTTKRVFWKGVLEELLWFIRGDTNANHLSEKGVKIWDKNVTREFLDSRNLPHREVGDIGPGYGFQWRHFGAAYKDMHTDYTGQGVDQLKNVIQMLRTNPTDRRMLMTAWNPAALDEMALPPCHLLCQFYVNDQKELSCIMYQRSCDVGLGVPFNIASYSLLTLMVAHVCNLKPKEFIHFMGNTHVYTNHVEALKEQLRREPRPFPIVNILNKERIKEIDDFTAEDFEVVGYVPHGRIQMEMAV
# Description: Inhibitory activity against Dihydrohydrofolate reductase(DHFR) of Toxoplasma gondii
# Dihydrofolate reductase [3] = target: T2, Dihydrofolate reductase (Rattus norvegicus, UniProt Q920D2)
# T2 sequence (Q920D2 whole entry): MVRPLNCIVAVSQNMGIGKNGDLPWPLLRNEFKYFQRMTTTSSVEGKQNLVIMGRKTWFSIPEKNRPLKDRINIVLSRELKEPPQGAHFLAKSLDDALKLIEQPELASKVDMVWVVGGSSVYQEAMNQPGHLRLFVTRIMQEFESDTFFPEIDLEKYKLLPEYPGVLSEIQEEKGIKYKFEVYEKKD
# Description: Inhibitory activity against Dihydrohydrofolate reductase (DHFR) of rat
# Dihydrofolate reductase [4] = target: T3, Dihydrofolate reductase (Mycobacterium avium, UniProt O30463)
# T3 sequence (O30463 whole entry): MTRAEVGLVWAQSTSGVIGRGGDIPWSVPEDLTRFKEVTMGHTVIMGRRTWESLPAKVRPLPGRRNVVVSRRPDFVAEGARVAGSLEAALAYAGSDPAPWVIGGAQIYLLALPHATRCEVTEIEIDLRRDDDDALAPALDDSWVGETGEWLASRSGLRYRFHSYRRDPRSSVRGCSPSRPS
# Description: Inhibition of Dihydrohydrofolate reductase(DHFR) of Mycobacterium avium
compound,measurement,setting,value
COc1ccc(C#CCOc2ccccc2C(=O)O)cc1Cc1cnc(N)nc1N,Selectivity index,[1],170
Nc1nc(N)c2nc(-c3ccccc3)c(-c3ccccc3)nc2n1,IC50,[2],240 nM
COc1ccc(OCCCC(=O)O)cc1Cc1cnc(N)nc1N,IC50,Dihydrofolate reductase [3],2700 nM
COc1cc(Cc2cnc(N)nc2N)cc(OC)c1-n1cccc1,IC50,[2],470 nM
Nc1nc(N)c2c(CNc3cccc4c3CCCC4)c[nH]c2n1,IC50,[2],1100 nM
Nc1nc(N)c2nc(CCSc3ccccc3)cnc2n1,IC50,[2],770 nM
Nc1nc(N)c2nc(C(=O)c3ccccc3)c(-c3ccccc3)nc2n1,IC50,[2],860 nM
Cc1cccc(-c2nc3c(N)nc(N)nc3nc2N)c1,IC50,[2],18 nM
COc1ccc(C#CCCCC(=O)O)cc1Cc1cnc(N)nc1N,IC50,Dihydrofolate reductase [4],7.8 nM
